Where a name gives a salt, the structure may show the parent alone. Read-outs that look alike come from different tables or passages of the source.
Tests used:
[1] = test system: fibrin-induced microglia activation; assay: Image-based assay of fibrin-induced microglia activation (HTS and dose response); type: cell-based, rat; settings: primary microglia HTS, fibrin stimulation; for inhibition at 10 µM: Rattus norvegicus, Microglia, read-out: Fibrin % inhibition
[2] = test system: LPS-induced microglia activation; assay: Image-based assay of LPS-induced microglia activation (HTS and dose response); type: cell-based, rat; settings: for inhibition at 10 µM: Rattus norvegicus, Microglia, read-out: LPS % inhibition
[3] = test system: fibrin- and LPS-induced microglia activation; assay: cells; type: cell-based, rat
primary rat microglia [4] = test system: primary rat microglia
primary rat microglia [5] = assay: Cell toxicity (dead cells, size <150 μm2) in coated fibrin (cFib) assay; settings: primary microglia HTS;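 also: share of dead cells sized under 150 µm2 at 10 µM in fibrin-stimulated microglia HTS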
[6] = cell size >800 μm2 as marker of activation
[7] = classification by fibrin and LPS inhibition in HTS
[8] = fibrin stimulation, cell size <150 μm2 as marker of toxicity
[9] = primary microglia HTS, LPS stimulation, compounds at 10 μM
[10] = quadrant by fibrin and LPS inhibition, HTS at 10 μM
[11] = fibrin assay, dead cells (size <150 μm2)
[12] = classification by fibrin and LPS inhibition, HTS at 10 μM
[13] = fibrin assay, dead cells (size <150 μm2), compounds at 10 μM

Compound | Quadrant (FIG. 5b) [3, 7] | LPS % cell toxicity (primary rat microglia [4]; rat) | Fibrin % cell toxicity (primary rat microglia [5]; [8]) | inhibition at 10 µM ([1]; compounds at 10 μM) | inhibition at 10 µM [2, 9] | Quadrant (FIG. 5b) [3, 10] | Fibrin % cell toxicity (primary rat microglia [5]; [11]) | also measured
CCCN(CCC)C(=O)C(CCC(=O)O)NC(=O)c1ccccc1 (stereo not shown) [Proglumide] | Q4 | 0% | 1% |  |  |  |  | inhibition at 10 µM [1, 6]: -4%; inhibition at 10 µM ([2]; 48 h): -1%
CC(Cc1cccc(C(F)(F)F)c1)NCCOC(=O)c1ccccc1 (stereo not shown) [Benfluorex] |  | 0% |  | -26% | -3% | Q4 | 1% | 
CC(=O)OCC(=O)NCCCOc1cccc(CN2CCCCC2)c1 [Roxatidine acetate] | Q4 | 0% | 1% |  |  |  |  | inhibition at 10 µM [1, 6]: 22%; inhibition at 10 µM ([2]; 48 h): 6%
Cc1nnc2n1-c1ccc(Cl)cc1C(c1ccccc1)=NC2 [Alprazolam] |  | 0% |  | 33% | 20% | Q4 | 1% | 
Br.CN1[C@H]2C[C@H](OC(=O)[C@H](CO)c3ccccc3)C[C@@H]1[C@@H](O)C2 [Anisodamine Hydrobromide] |  |  |  |  |  | Q4 | 1% | Fibrin % inhibition ([1]; compounds at 10 μM): −41%; LPS % inhibition [2, 9]: 4%; LPS % cell toxicity (primary rat microglia [4]): 0%
O=C(O)/C=C\C(=O)O.O=C(O)/C=C\C(=O)O.c1ccc2nc(N3CCNCC3)ccc2c1 [Quipazine Dimaleate, Quipazine Maleate] | Q4 |  | 1% |  |  |  |  | Fibrin % inhibition [1, 6]: −18%; LPS % inhibition [2]: 9%; LPS % cell toxicity (primary rat microglia [4]): 0%
CC(=O)[C@H]1CC[C@H]2[C@@H]3C=CC4=CC(=O)CC[C@@]4(C)[C@@H]3CC[C@]12C [Dydrogesterone] |  | 0% |  | -11% | 4% |  |  | Quadrant (FIG. 5b) [3, 12]: Q4; Fibrin % cell toxicity (primary rat microglia [5]; [13]): 0%
CCN(CC)CCOC(=O)C(c1ccccc1)C1CCCCC1 (stereo not shown) [Drofenine Hydrochloride] |  | 0% |  | -44% | 9% |  |  | Quadrant (FIG. 5b) [3, 12]: Q4; Fibrin % cell toxicity (primary rat microglia [5]; [13]): 1%
CCc1oc2ccccc2c1C(=O)c1cc(Br)c(O)c(Br)c1 [Benzbromarone] |  | 1% |  | 0% | 24% | Q4 | 0% | 
FCOC(C(F)(F)F)C(F)(F)F [Sevoflurane] | Q4 | 1% | 1% |  |  |  |  | inhibition at 10 µM [1, 6]: -1%; inhibition at 10 µM ([2]; 48 h): 17%
CNC(=O)Oc1ccccc1OC(C)C [Propoxur] | Q4 | 0% | 1% |  |  |  |  | inhibition at 10 µM [1, 6]: -51%; inhibition at 10 µM ([2]; 48 h, primary microglia HTS, LPS stimulation, cell size >800 μm2 as marker of activation): 8%
Cc1c(OCC(F)(F)F)ccnc1C[S@@+]([O-])c1nc2ccccc2[nH]1 [Dexlansoprazole] |  | 0% |  | -23% | -12% |  |  | Quadrant (FIG. 5b) [3, 12]: Q4; Fibrin % cell toxicity (primary rat microglia [5]; [13]): 0%
C=C(NC(=O)C(=C)NC(=O)c1csc(C2=N[C@@H]3c4csc(n4)[C@H]4NC(=O)c5csc(n5)[C@H]([C@](C)(O)[C@@H](C)O)NC(=O)[C@H]5CSC(=N5)/C(=C/C)NC(=O)[C@H]([C@@H](C)O)NC(=O)c5csc(n5)[C@]3(CC2)NC(=O)[C@H](C)NC(=O)C(=C)NC(=O)[C@H](C)NC(=O)[C@H]([C@@H](C)CC)N[C@@H]2C=Cc3c([C@H](C)O)cc(nc3[C@H]2O)C(=O)O[C@@H]4C)n1)C(N)=O [Thiostrepton] |  | 1% |  | 109% | 65% | Q2 | 64% | 
Apramycin Sulfate |  |  |  |  |  | Q4 | 1% | Fibrin % inhibition ([1]; compounds at 10 μM): 11%; LPS % inhibition [2, 9]: 25%; LPS % cell toxicity (primary rat microglia [4]): 1%
N[C@@H](COP(=O)(O)O)C(=O)O [Phosphonoserine] | Q4 | 0% | 1% |  |  |  |  | inhibition at 10 µM [1, 6]: -6%; inhibition at 10 µM ([2]; 48 h): 10%
CC(=O)OC1CN2CCC1CC2.Cl (stereo not shown) [Aceclidine Hydrochloride, Aceclidine] |  |  |  |  |  | Q4 | 1% | Fibrin % inhibition ([1]; compounds at 10 μM): 2%; LPS % inhibition [2, 9]: 0%; LPS % cell toxicity (primary rat microglia [4]): 0%
C[C@H]1COc2c(C3(N)CC3)c(F)cc3c(=O)c(C(=O)O)cn1c23 [Pazufloxacin Mesylate, Pazufloxacin] | Q4 |  | 1% |  |  |  |  | Fibrin % inhibition [1, 6]: −10%; LPS % inhibition [2]: 11%; LPS % cell toxicity (primary rat microglia [4]): 0%

— patent publication US20210330611A1, “THERAPY FOR NEUROLOGICAL DISEASES/DISORDERS” (priority 2020, published 2021)
